# Experimental data: article PMC10812672, “Short Antimicrobial Peptide Derived from the Venom Gland Transcriptome of Pamphobeteus verdolaga Increases Gentamicin Susceptibility of Multidrug-Resistant Klebsiella pneumoniae” (Antibiotics, 2023)
# pIC50: −log10 of the molar value. Like-named read-outs stand apart in the source and are kept apart here. Ends that are not written are not given here.
# Key:
# [1] = system: multidrug-resistant (MDR) strain of K. pneumoniae, clinical isolate; assay: microbe, parasite or virus in culture; format: cell-based, Klebsiella pneumoniae
# Protocol: A multidrug-resistant (MDR) strain of K. pneumoniae was identified and isolated from a tertiary-level hospital in Medellin, Colombia, using the VITEK-2 system (bioMérieux, Marcy-l’Étoile, France). The MDR strain was evaluated against several antibiotics at concentrations of 1.56–100 μM. […] In contrast, the strain was susceptible to doxycycline (Supplementary Figure S7g) and chloramphenicol (Supplementary Figure S7h), with MICs of 50 μM and 100 µM, respectively (Table 3). […] All of P. verdolaga’s AMPs were evaluated against the clinical isolate at concentrations of 1.56–200 µM (Supplementary Figure S8). […] A growth inhibition kinetic assay was conducted. […] All of P. verdolaga’s peptides at 100 μM induced morphological changes in the MDR K. pneumoniae, indicating membrane interactions, even though no significant inhibition was observed (Supplementary Figure S9).
# The evaluation of the antimicrobial activity of the peptides was conducted using the CLSI’s broth microdilution method for bacterial susceptibility testing. For the screening phase, peptides were evaluated at a single 30 μM concentration, in triplicate and in three independent assays, against the E. coli ATCC® 8739, E. coli ATCC® 25922, S. aureus ATCC® 6538, or S. aureus ATCC® 29213 reference USP and CLSI strains. For the determination of MIC, MBC, or IC50, peptides or antibiotics were evaluated in concentrations between 1.56–200 µM. These evaluations were conducted in triplicate and in three independent assays, against the E. coli ATCC® 25922, S. aureus ATCC® 29213, E. faecalis ATCC® 49532, P. aeruginosa ATCC® 9027, and K. pneumoniae ATCC® BAA-1705, or the clinically isolated MDR strain. In detail, 1 mL of a glycerol stock solution of the ATCC® or clinically isolated bacterial strain was added to 9 mL of Mueller-Hinton Broth and incubated for 18 h, 180 rpm and 37 °C (Incubator 1000, Heidolph Instruments, Schwabach, Germany). After the incubation, 1 mL of the previous solution was transferred to a new recipient containing 9 mL of fresh Mueller-Hinton broth and incubated for 4 h, 180 rpm and 37 °C (Incubator 1000, Heidolph Instruments, Schwabach, Germany). During the second incubation, the peptides or the antibiotics were dissolved in PBS pH 7.20 in concentrations between 19.53–2500 µM (MC5 Micro Balance, Sartorius AG, Göttingen, Germany). An amount of 10 µL of either peptide or antibiotic was dispensed in triplicate in 96-well flat bottom culture plates, along with 10 µL of PBS (Negative activity control), BTM-P1 (Positive activity control), or 10 µL of Mueller-Hinton broth (Blank); then, 110 µL of Mueller-Hinton broth was poured in all wells. Following this, the bacteria were suspended in Mueller-Hinton broth up to a concentration of approximately 1.50 × 10^8 CFU/mL, as measured by optical density at 600 nm between 0.06 to 0.11 (0.5 McFarland standard), in a Multiskan SkyHigh spectrophotometer (ThermoFisher Scientific, Waltham, MA, USA). Amounts of 5 µL of the 1.50 × 10^8 CFU/mL suspension were added to each well (except for the blank) for a final well concentration of approximately 6 × 10^6 CFU/mL. The plate was incubated for 24 h at 37 °C (BE 500, Memmert GmbH, Büchenbach, Germany) and optical density was measured at 600 nm in a Multiskan SkyHigh spectrophotometer (ThermoFisher Scientific, Waltham, MI, USA). Following the measurement of optical density, plates were visually inspected to determine the MIC. Subsequently, 100 µL of the concentration associated to the MIC and 100 µL of the next higher concentration were added to Petri dishes containing Mueller-Hinton Agar. The dishes were then incubated for 24 h at 37 °C (BE 500, Memmert GmbH, Büchenbach, Germany). After incubation, the Petri dishes were visually inspected, and the MBC was determined in the absence of growth. IC50 values were interpolated from regressions with correlation values above 0.70. […]
# MDR K. pneumoniae = assay: Isobologram analysis and FICI, PvAMP66 with gentamicin; format: cell-based, Klebsiella pneumoniae
# Protocol: Given the intermediate resistance to gentamicin, an isobologram analysis was used as a proof-of-concept to evaluate the interaction between PvAMP66 and the antibiotic. The growth inhibition of the clinical isolate was measured using peptide concentrations of 0.10–100 µM, and gentamicin concentrations of 0.10–50 µM (Supplementary Figure S10). Combined IC50 values were calculated and plotted in a graph with a secant line representing the IC50 values for PvAMP66 and gentamicin when used alone (Figure 2a). […] The concentrations adjacent to the aforementioned data point were evaluated. […] Additionally, a Fractional Inhibitory Concentration Index (FICI) of 0.59 was obtained.
# For the isobologram analysis concentrations, ranges of 1.56 µM to 200 µM of the peptide and 0.07 µM to 100 µM of the gentamicin were used. The experiments were conducted in triplicate and repeated in two independent assays. The IC50 for each combination was determined using either logarithmic or linear regression. Then, when achieving 50% growth inhibition, the concentrations of the peptide and gentamicin were recorded and used to create an isobologram graph with a ‘peptide concentration’ vs. ‘gentamicin concentration’ plot. […] The fractional inhibitory concentration index was calculated as follows: FICI=Combined MICAntibiotic/MICAntibiotic+Combined MICPeptide/MICPeptide
# P. aeruginosa ATCC® 9027 = format: cell-based, Pseudomonas aeruginosa; conditions: for MIC: 1.56–200 µM, 24 h 37 °C, visual inspection, triplicate, three independent assays; for pIC50: growth inhibition OD600, 95% confidence interval in parentheses; for MBC: plating on Mueller-Hinton agar, absence of growth
# Protocol: (§1) The nine AMPs identified in the initial screening were evaluated at concentrations between 1.56–200 µM, against E. coli ATCC® 25922, S. aureus ATCC® 29213, E. faecalis ATCC® 49532, P. aeruginosa ATCC® 9027, and K. pneumoniae ATCC® BAA-1705 (Supplementary Figures S2–S6). […] Only PvAMP66 and PvAMP172 reached the MBC for S. aureus at 50 µM and 100 µM, respectively (Table 2).
# (§2) The evaluation of the antimicrobial activity of the peptides was conducted using the CLSI’s broth microdilution method for bacterial susceptibility testing. For the screening phase, peptides were evaluated at a single 30 μM concentration, in triplicate and in three independent assays, against the E. coli ATCC® 8739, E. coli ATCC® 25922, S. aureus ATCC® 6538, or S. aureus ATCC® 29213 reference USP and CLSI strains. For the determination of MIC, MBC, or IC50, peptides or antibiotics were evaluated in concentrations between 1.56–200 µM. These evaluations were conducted in triplicate and in three independent assays, against the E. coli ATCC® 25922, S. aureus ATCC® 29213, E. faecalis ATCC® 49532, P. aeruginosa ATCC® 9027, and K. pneumoniae ATCC® BAA-1705, or the clinically isolated MDR strain. In detail, 1 mL of a glycerol stock solution of the ATCC® or clinically isolated bacterial strain was added to 9 mL of Mueller-Hinton Broth and incubated for 18 h, 180 rpm and 37 °C (Incubator 1000, Heidolph Instruments, Schwabach, Germany). After the incubation, 1 mL of the previous solution was transferred to a new recipient containing 9 mL of fresh Mueller-Hinton broth and incubated for 4 h, 180 rpm and 37 °C (Incubator 1000, Heidolph Instruments, Schwabach, Germany). During the second incubation, the peptides or the antibiotics were dissolved in PBS pH 7.20 in concentrations between 19.53–2500 µM (MC5 Micro Balance, Sartorius AG, Göttingen, Germany). An amount of 10 µL of either peptide or antibiotic was dispensed in triplicate in 96-well flat bottom culture plates, along with 10 µL of PBS (Negative activity control), BTM-P1 (Positive activity control), or 10 µL of Mueller-Hinton broth (Blank); then, 110 µL of Mueller-Hinton broth was poured in all wells. Following this, the bacteria were suspended in Mueller-Hinton broth up to a concentration of approximately 1.50 × 10^8 CFU/mL, as measured by optical density at 600 nm between 0.06 to 0.11 (0.5 McFarland standard), in a Multiskan SkyHigh spectrophotometer (ThermoFisher Scientific, Waltham, MA, USA). Amounts of 5 µL of the 1.50 × 10^8 CFU/mL suspension were added to each well (except for the blank) for a final well concentration of approximately 6 × 10^6 CFU/mL. The plate was incubated for 24 h at 37 °C (BE 500, Memmert GmbH, Büchenbach, Germany) and optical density was measured at 600 nm in a Multiskan SkyHigh spectrophotometer (ThermoFisher Scientific, Waltham, MI, USA). Following the measurement of optical density, plates were visually inspected to determine the MIC. Subsequently, 100 µL of the concentration associated to the MIC and 100 µL of the next higher concentration were added to Petri dishes containing Mueller-Hinton Agar. The dishes were then incubated for 24 h at 37 °C (BE 500, Memmert GmbH, Büchenbach, Germany). After incubation, the Petri dishes were visually inspected, and the MBC was determined in the absence of growth. IC50 values were interpolated from regressions with correlation values above 0.70. Growth inhibition percentages were calculated as follows: Growth inhibition %=1−AbsPEPTIDE or ANTIBIOTIC−Median AbsBLANK/Median AbsPBS−Median AbsBLANK×100
# E. coli ATCC® 25922 [2] = format: cell-based, Escherichia coli; conditions: for MIC: 1.56–200 µM, visual inspection, triplicate, three independent assays; for MIC / MBC: 24 h 37 °C; for pIC50: growth inhibition OD600, interpolated from regression, 95% confidence interval in parentheses, read-out: IC50; for MBC: plating on Mueller-Hinton agar, absence of growth
# Protocol: as §1, §2
# E. coli ATCC® 25922 [3] = format: cell-based, Escherichia coli; conditions: CLSI broth microdilution, Mueller-Hinton broth, peptide 30 µM, ~6 × 10^6 CFU/mL, 24 h 37 °C, OD600; triplicate, three independent assays; NA = no activity
# Protocol: (§3) Activity screening was conducted using the broth microdilution method at a fixed peptide concentration of 30 µM against E. coli ATCC® 8739 and 25922, as well as S. aureus ATCC® 6538 and 29213. The bacterial density used for screening was approximately 6 × 10^6 CFU/mL [30]. Peptide activity measurements were conducted in terms of the growth inhibition percentage. No dose-response curves were generated during the screening phase as a resource optimization strategy in the initial activity evaluation. […] For S. aureus ATCC® 6538 and S. aureus ATCC® 29213, growth inhibition ranged from 0% to 140% and 0% to 98%, respectively (Table 1).
# as §2
# E. coli ATCC® 8739 = format: cell-based, Escherichia coli; conditions: CLSI broth microdilution, Mueller-Hinton broth, peptide 30 µM, ~6 × 10^6 CFU/mL, 24 h 37 °C, OD600; triplicate, three independent assays; NA = no activity
# Protocol: as §3, §2
# S. aureus ATCC® 29213 [4] = format: cell-based, Staphylococcus aureus; conditions: for MIC: 1.56–200 µM, 24 h 37 °C, visual inspection, triplicate, three independent assays; for pIC50: growth inhibition OD600, 95% confidence interval in parentheses
# Protocol: as §1, §2
# S. aureus ATCC® 6538 = format: cell-based, Staphylococcus aureus; conditions: CLSI broth microdilution, Mueller-Hinton broth, peptide 30 µM, ~6 × 10^6 CFU/mL, 24 h 37 °C, OD600; triplicate, three independent assays; NA = no activity
# Protocol: as §3, §2
# S. aureus ATCC® 29213 [5] = format: cell-based, Staphylococcus aureus; conditions: CLSI broth microdilution, Mueller-Hinton broth, peptide 30 µM, ~6 × 10^6 CFU/mL, 24 h 37 °C, OD600; triplicate, three independent assays; NA = no activity
# Protocol: as §3, §2
Molecule,pIC50 ([1]; Klebsiella pneumoniae),"MIC ([1]; Klebsiella pneumoniae, MDR K. pneumoniae clinical isolate)","Classification at 10^6 CFU/mL ([1]; MDR K. pneumoniae clinical isolate, CLSI classification)","MIC ([1]; MDR K. pneumoniae clinical isolate, peptides 1.56–200 µM, antibiotics 1.56–100 µM, 24 h 37 °C)","pIC50 (MDR K. pneumoniae; Klebsiella pneumoniae, with PvAMP66 9.85 µM, read-out: combined IC50 for gentamicin)","combined MIC, gentamicin (MDR K. pneumoniae; with 12.50 µM PvAMP66)",MIC (P. aeruginosa ATCC® 9027),pIC50 (P. aeruginosa ATCC® 9027),MBC (P. aeruginosa ATCC® 9027),MIC (E. coli ATCC® 25922 [2]),pIC50 (E. coli ATCC® 25922 [2]),MBC (E. coli ATCC® 25922 [2]),E. coli ATCC® 25922 (Inhibition %) (E. coli ATCC® 25922 [3]),E. coli ATCC® 8739 (Inhibition %) (E. coli ATCC® 8739),MIC (S. aureus ATCC® 29213 [4]),"MBC (S. aureus ATCC® 29213 [4]; plating on Mueller-Hinton agar, absence of growth)",S. aureus ATCC® 6538 (Inhibition %) (S. aureus ATCC® 6538),S. aureus ATCC® 29213 (Inhibition %) (S. aureus ATCC® 29213 [5]),pIC50 (S. aureus ATCC® 29213 [4]),IC50 (E. coli ATCC® 25922 [2]; same result in µg/mL)
"CNC(C)C1CCC(N)C(OC2C(N)CC(N)C(OC3OCC(C)(O)C(NC)C3O)C2O)O1 (centres unmarked) [Gentamicin, gentamicin]",4.48,9.31 mg/L,Intermediate resistant,50.00 µM,5.51,4.70 µM,–,–,–,–,–,–,–,–,–,–,–,–,–,–
"CRKLCFRNRCLTYCRGR-NH2 (disulfide (positions not given here)) [PvAMP172, predicted P. verdolaga AMP]",–,–,–,–,–,–,50 µM,4.31,50 µM,50 µM,4.37,50 µM,47.43 ± 2.76 %,64.78 ± 5.46 %,100 µM,100 µM,–,–,–,–
IIKKIWK-NH2 [PvAMP32],–,–,–,–,–,–,100 µM,3.91,100 µM,100 µM,4.02,100 µM,21.19 ± 3.82 %,30.73 ± 5.21 %,50 µM,–,43.62 ± 4.90 %,33.17 ± 8.46 %,3.97,–
"QCRKLCFRNRCLTYCRGR-NH2 (disulfide (positions not given here)) [PvAMP177, predicted P. verdolaga AMP]",–,–,–,–,–,–,50 µM,4.59,50 µM,25 µM,4.60,50 µM,56.76 ± 3.64 %,93.07 ± 7.11 %,–,–,–,–,3.86,6.64 mg/L
